Assay results taken from patent publication US20140378451A1, “Cannabinoid-2-Receptor Agonists” (ISIS INNOVATION LIMITED, priority 2011, published 2014).

Columns and labels:
hCB2R = biological target: T1, hCB2R (Homo sapiens, UniProt P34972); experiment: cAMP assay on hCB2R clone 3D8.3 (transfected CHO-K1 cells); assay type: cell-based; conditions: for IC50: cAMP, hCNR2 CHO-K1 3D8.3 clone, read-out: Assay 1 IC50
T1 construct: unnamed tag of the plasmid; expressed in transfected cells
Procedure: (§1) Compounds were evaluated for their CB2R agonist potency in the following assays:
Assay 1—cAMP Assay on hCB2R Clone 3D8.3:
Chinese hamster ovary cells (CHO)-K1 were transfected with hCB2R plasmid using Genejuice (Merck). After 48 h the cells were transferred into flasks in the presence of the antibiotic G418 and expanded (with continuous replenishment of the antibiotic). Two single-cell cloning rounds were then performed, followed by verification of the presence of the tag of the plasmid and confirming the receptor was functional in cAMP studies. For the screening of compounds: Briefly, hCNR2 CHO-K1 (3D8.3 clone) cells were plated in Optimem+1% FCS (30000 cells, 100 ul per well) in half-area 96-well plates (Corning 3885) and placed in an incubator 37° C. 5% CO2 overnight. Next day, the medium was aspirated and replaced with ‘antibody solution’ (22.5 ul) (provided concentrated, diluted 1 in 3 with ‘assay buffer’ provided). The freshly made compounds (at a ×4 final concentration) or solvent alone (1.2% DMSO) were added to the wells and incubated for 30 minutes in a 37° C. incubator 5% CO2. A mixture of: Lysis solution (38%), substrates (Emerald-II™ (10%) and Galacton-Star® (2%)) and enzyme donor-labeled cAMP (50%) was added to the wells and incubated in the dark for one hour at room temperature. 30 μl of detection reagent (enzyme acceptor, provided) was then added to the wells and incubated in the dark for 3 hours at room temperature. The luminescence was then read with a Perkin-Elmer luminometer.

hCNR2 (CB2R) = biological target: T2, hCNR2 (CB2R) (Homo sapiens, UniProt P34972); experiment: DiscoveRx cAMP Hunter Express GPCR assay (hCNR2 CHO-K1 cells); assay type: cell-based; conditions: for IC50: cAMP Hunter eXpress, hCNR2 CHO-K1 cells, read-out: Assay 2 IC50
T2 construct: host or cells: CHO-K1 (purchased recombinant cell line)
T2 sequence (P34972 whole entry): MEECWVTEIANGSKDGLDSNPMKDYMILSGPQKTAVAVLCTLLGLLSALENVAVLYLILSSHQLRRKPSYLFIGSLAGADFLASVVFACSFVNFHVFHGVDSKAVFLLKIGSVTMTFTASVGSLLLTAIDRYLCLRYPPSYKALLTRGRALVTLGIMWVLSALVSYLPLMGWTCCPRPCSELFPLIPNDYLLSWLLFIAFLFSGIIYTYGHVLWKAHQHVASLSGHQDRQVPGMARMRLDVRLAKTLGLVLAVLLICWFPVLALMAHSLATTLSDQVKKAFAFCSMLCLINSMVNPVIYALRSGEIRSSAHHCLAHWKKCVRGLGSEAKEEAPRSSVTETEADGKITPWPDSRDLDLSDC
Procedure: as §1
Assay 2—DiscoveRx cAMP Hunter Express GPCR Assay
The cAMP Hunter eXpress GPCR assay kit and cells used are from DiscoveRx Corporation (95-0040E2) using the manufacturer's protocol without the optional IBMX step. […] Briefly, hCNR2 CHO-K1 cells were plated in the provided medium (50 ul per well) in half-area 96-well plates (Corning 3885) and placed in an incubator 37° C. 5% CO2 overnight. Next day, the medium was aspirated and replaced with ‘antibody solution’ (22.5 ul) (provided concentrated, diluted 1 in 3 with ‘assay buffer’ provided). The freshly made compounds (at a ×4 final concentration) or solvent alone (1.2% DMSO) were added to the wells and incubated for 30 minutes in a 37° C. incubator 5% CO2. A mixture of lysis solution and two substrates (provided with the DiscoveRx kit) was added to the wells and incubated in the dark for one hour at room temperature. A detection reagent (provided) was then added to the wells and incubated in the dark for 3 hours at room temperature. The luminescence was then read with a Perkin-Elmer luminometer.

T1 sequence (P34972 whole entry): as above

SMILES | IC50 (hCB2R) | IC50 (hCNR2 (CB2R)) | Assay 1 activity at 3 μM (hCB2R; at 3 μM) | Assay 2 decrease at 1 and 3 μM (hCNR2 (CB2R); at 1 and 3 μM)
O=[N+]([O-])c1ccccc1CSc1nnc2c3ccccc3n(Cc3ccccc3F)c2n1 [Example 13] | 201 nM | 201 nM | – | –
CN(C)c1ccc(C(=O)n2c3ccccc3c3nnc(SCc4ccccc4C#N)nc32)cc1 [Example 16] | – | – | ~40% activity at 3 μM | 20% decrease at 1 and 3 μM
N#Cc1ccccc1CSc1nnc2c3ccccc3n(C(=O)C3CCCCC3)c2n1 [Example 18, 2′-(((5-(Cyclohexanecarbonyl)-5H-[1,2,4]triazino[5,6-b]indol-3-yl)thio)methyl)benzonitrile] | 12 nM | 32 nM | – | –
N#Cc1ccccc1CSc1nnc2c3ccccc3n(C(=O)c3cccc(C(F)(F)F)c3)c2n1 [Example 19] | 57 nM | 27 nM | – | –
N#Cc1ccccc1CSc1nnc2c3ccccc3n(C(=O)c3ccc(F)cc3)c2n1 [Example 20, 2′-(((5-(4″-Fluorobenzoyl)-5H-[1,2,4]triazino[5,6-b]indol-3-yl)thio)methyl)benzonitrile] | 32 nM | 57 nM | – | –
N#Cc1ccccc1CSc1nnc2c3ccccc3n(C(=O)c3ccc(OC(F)(F)F)cc3)c2n1 [Example 21, 2′-(((5-(4″-(Trifluoromethoxy)benzoyl)-5H-[1,2,4]triazino[5,6-b]indol-3-yl)thio)methyl)benzonitrile] | 111 nM | 73 nM | – | –
N#Cc1ccccc1CSc1nnc2c3ccccc3n(C(=O)C3CCCC3)c2n1 [Example 22, 2′-(((5-(Cyclopentanecarbonyl)-5H-[1,2,4]triazino[5,6-b]indol-3-yl)thio)methyl)benzonitrile] | 14 nM | 49 nM | – | –
N#Cc1ccccc1CSc1nnc2c3ccccc3n(C(=O)c3ccco3)c2n1 [Example 23, 2′-(((5-(Furan-2″-carbonyl)-5H-[1,2,4]triazino[5,6-b]indol-3-yl)thio)methyl)benzonitrile] | 31 nM | 46 nM | – | –
N#Cc1ccccc1CSc1nnc2c3ccccc3n(C(=O)c3ccno3)c2n1 [Example 24, 2′-(((5-(Isoxazole-5″-carbonyl)-5H-[1,2,4]triazino[5,6-b]indol-3-yl)thio)methyl)benzonitrile] | 14 nM | 19 nM | – | –
N#Cc1ccccc1CSc1nnc2c3ccccc3n(C(=O)c3ccccc3)c2n1 [Example 25] | 38 nM | 113 nM | – | –
COC(=O)CCC(=O)n1c2ccccc2c2nnc(SCc3ccccc3C#N)nc21 [Example 26, methyl 4″-(3-((2′-cyanobenzyl)thio)-5H-[1,2,4]triazino[5,6-b]indol-5-yl)-4″-oxobutanoate] | 43 nM | 48 nM | – | –
COC(=O)CCCC(=O)n1c2ccccc2c2nnc(SCc3ccccc3C#N)nc21 [Example 27, methyl 5″-(3-((2′-cyanobenzyl)thio)-5H-[1,2,4]triazino[5,6-b]indol-5-yl)-5″-oxopentanoate] | 45 nM | 42 nM | – | –
CCCCSc1nnc2c(n1)[nH]c1ccccc12 [Example 28, 3-(butylthio)-5H-[1,2,4]triazino[5,6-b]indole] | 95 nM | 95 nM | – | –
